{"source": "patent US20220401585A1", "about": "“A UROKINASE PLASMINOGEN ACTIVATOR RECEPTOR-TARGETING PEPTIDE” (RIGSHOSPITALET, priority 2019, published 2022)", "key": {"orthotopic GBM": {"tested_on": "orthotopic GBM", "assay": "Fluorescence-guided resection", "assay_type": "in vivo, mouse", "settings": "6 nmol at 3 h, EleVision IR system", "experimental": "Preoperatively, the tumor was visible on WL and NIR images (FIG. 15 upper panel). The surgeon performed the resection only assisted by WL until the surgeon considered all tumor tissues was removed. […] A video of fluorescence-guided surgery is also available in the online supplementary materials.\nAs should be understood from above, in FIG. 15 there is shown fluorescence-guided surgery (6 nmol IRDye800CW-AE344 at 3 h) performed with the EleVision™ IR system. Upper panel: Images were acquired prior to surgery. Middle panel: Pictures were acquired following surgery in white light and clearly visualizes remaining tumor tissue. The signal is more intense compared to upper panel and is due to the fact that the remaining tumor is now more exposed."}, "uPAR [1]": {"target": "T1, uPAR (Homo sapiens, UniProt Q03405)", "assay": "In vivo binding specificity (competitive blocking, scrambled probe)", "design": "endogenous in cells; species or system mice", "settings": "3 nmol, 1 h; for signal intensity compared to the active probe: orthotopic GBM", "experimental": "The target specificity to uPAR was evaluated by two different methods: competitive blocking with the uPAR targeting peptide AE120 ((DChaFsrYLWSG)2-βAK) and IRDye800 conjugated to a scrambled peptide, AE354 (IRDye800CW-Glu-Glu-NH—CH2—CH2—O—CH2—CH2—O—CH2—CO—NH—CH2—CH2—O—CH2—CH2—O—CH2—CO-Asp-Cha-Glu-(D)Ser-(D)Arg-Tyr-Leu-Glu-Ser-OH) with similar peptide length as the active peptide. The competitive blocking dose of 1.4-2.8 mg AE120 was injected intraperitoneally 15-30 min prior to intravenous injection of 3 nmol IRDye800CW-AE344 and imaged at 1 h (n=5). The scrambled peptide was administered at 3 nmol and the animals were imaged after 1 h (n=4).\n(§1) Images were analyzed and processed in ImageJ 1.52a, NIH, USA. Signal measurements were performed on the raw images generated by the Fluoptics system. Tumor signal was measured as a mean fluorescence intensity of the whole tumor and background signal was measured as the mean of a representative area with no tumor on the contralateral hemisphere. Presented pictures are contrast enhanced in ImageJ with the Contrast Enhancement (Saturated pixels: 0.3%)."}, "[2]": {"assay": "Acute toxicity, liver and kidney histology", "design": "species or system mice", "settings": "mouse, in vivo", "text": "Liver and kidneys: Tissue was formalin fixed and paraffin embedded. Sections of 2-4 um thick were cut and a routine staining panel applied including: H&E, modified sirius, PAS and Masson trichome for both and additional PAS with silver for kidneys and PAS with diastase, iron, reticulin artisan and oxidised orcein for the livers. Livers were immunohistochemically stained, immunohistochemical evaluation on 3 μm thick sections was done using the CK7 antibody from Dako/Agilent, GA619 (clone OV-TL12/30) following the manufacturer's instructions. The staining took place on the Omnis from Agilent utilizing the EnVision Flex+ detection kit (GV800). The primary antibody was diluted using Antibody Diluent (Dako DM830) and were incubated for 20 minutes. The sections were counterstained with hematoxylin."}, "[3]": {"assay": "Photostability under continuous laser exposure", "assay_type": "physicochemical", "experimental": "The photostability was evaluated by a factor 2 dilution series with four samples from 0.23-1.8 nM IRDye800-AE344 in 100 μL phosphate buffered saline (PBS) placed in a black 96-well plate. The well was placed in a black box with the Fluobeam mounted in the top at a distance of 23 cm from the well plate. Image acquisition was performed at 0 min, 10 min, 15 min, 20 min, 0.5 h, 1 h, 2 h, 3 h, 6 h, 10 h, 15 h, 24 h. Each dilution sample was normalized to time point 0 and the data from all four samples were pooled."}, "[4]": {"tested_on": "orthotopic GBM (U-87 MG-luc2 xenograft)", "assay": "NIR fluorescence imaging of orthotopic GBM (dynamic imaging, TBR and MFI)", "assay_type": "in vivo, mice", "experimental": "All experimental procedures in animals were carried out in accordance with the approval by The Animal Experiments Inspectorate, Denmark. 7-10-week-old female nude mice (strain: Rj:NMRI-Foxn1nu/nu, JANVIER LABS, France) were orthotopically xenografted with U-87 MG-luc2 cells. Prior to any surgical procedure, the animals were anesthetized with Hypnorm (0.315 mg/ml fentanyl, 10 mg/ml fluanisone)+Midazolam (5 mg/ml)+sterile water in the ratio 1:1:2 by subcutaneous injection of 0.01 ml/g body weight of the solution.\nThe orthotopic GBM tumor model was established by inoculation of 500.000 cells in 10 μL ice cold PBS in the right hemisphere (1.5 mm lateral and 0.5 mm posterior to the bregma at 2 mm depth) using a stereotaxic frame (KOPF INSTRUMENTS, Tujunga, Calif., USA) with the automated microinjection pump UMP3 (WPI, Sarasota, Fla., USA). The cells were injected over 5 min with the syringe kept in place for further 3 min before retraction. Tumor growth was subsequently monitored on MRI with the BioSpec 7T (Bruker, Billerica, Mass., USA) with axial and coronal T2-weighted sequences. When the tumor size reached 2-17 mm^3, the animals were included in the fluorescence imaging protocol.\nAll image acquisition was performed with the Fluobeam system with (Fluosoft version: 2.2.1) (Fluoptics, Grenoble, France). To characterize the in vivo biodistribution and tumor imaging properties, IRDye800-AE344 was administered through tail vein injection into all the GBM bearing mice (n=35) at four different doses: 1 nmol, 3 nmol, 6 nmol, and 12 nmol. Two mice were sacrificed for each time point and the brain was removed and cross sectioned through the tumor for imaging. […] Accordingly, image acquisition was performed at following time points after injection:\n1 nmol: 0.5 h, 1 h, and 2 h\n3 nmol: 1 h, 2 h, 3 h, and 5 h\n6 nmol: 1 h, 3 h, 6 h, and 12 h\nas §1\nPathological assessment was used to evaluate the colocalization of the fluorescence signal and cancer cells (sens+spec). The cross sectioned brain specimens from the fluorescence imaging were either paraffin embedded for H&E and IHC staining, or cryostat sectioned for fluorescence microscopy. […]\nCryostat sectioning was performed by fixation of the specimen in Tissue-Tek O.C.T. on dry ice. The fixed tissue was sliced axially and mounted on slides for immediate fluorescence imaging."}, "uPAR [5]": {"target": "T1, uPAR", "assay": "SPR inhibition of uPAR wt binding to immobilized pro-uPA", "settings": "inhibition of uPAR binding to immobilized pro-uPA S356A, 20° C.", "experimental": "Covalent immobilization of purified human prouPA^S356A—was accomplished by injecting 12.5 μg/ml protein dissolved in 10 mM sodium acetate (pH 5.0) over a CM5 chip that had been pre-activated with NHS/EDC (N-ethyl-N′[3-[…])propyl]-carbodiimide), aiming at a surface density of >5000 resonance units (RU) corresponding to 100 fmols/mm^2. After coupling the sensorchip was deactivated with 1 M ethanolamine. Binding of purified human uPAR as analyte was measured from 4 nM to 0.25 nM at 20° C. using 10 mM HEPES, 150 mM NaCl, 3 mM EDTA (pH 7.4) containing 0.05% (v/v) surfactant P20 as running buffer at a flow rate of 50 μl/min. […]\nSurface plasmon resonance (SPR) was applied to determine the IC50-value of IRDye800-AE344 on the uPAR·uPA interaction in solution using a Biacore 3000 instrument essentially as described. […] A standard curve was measured in parallel (2-fold dilution of uPAR covering 0.06 nM to 2 nM) including one repeated concentration point at the end to validate the biological integrity of the sensor chip. […] The parent nonamer peptide antagonist AE105 (Asp-Cha-Phe-D-Ser-D-Arg-Tyr-Leu-Trp-Ser-OH) was analyzed in parallel as positive control and the closed uPAR^H47C-N259C was used as negative control as its uPA binding cavity cannot accommodate AE105."}}, "note": "Primed or numbered codes have the meaning given here. [ ]: non-standard residue; d: D form. Cha = N[C@@H](CC1CCCCC1)C(=O)O; IRDye800CW′ = not defined here; AEEA = NCCOCCOCC(=O)O"}
{"compound": "CC(C)C[C@H](NC(=O)[C@H](Cc1ccc(O)cc1)NC(=O)[C@@H](CCCNC(=N)N)NC(=O)[C@@H](CO)NC(=O)[C@H](Cc1ccccc1)NC(=O)[C@H](CC1CCCCC1)NC(=O)[C@H](CC(=O)O)NC(=O)COCCOCCNC(=O)COCCOCCNC(=O)[C@H](CCC(=O)O)NC(=O)[C@H](CCC(=O)O)NC(=O)CCCCC[N+]1=C(/C=C/C2=C(Oc3ccc(S(=O)(=O)O)cc3)C(=C/C=C3/N(CCCCS(=O)(=O)[O-])c4ccc(S(=O)(=O)O)cc4C3(C)C)/CCC2)C(C)(C)c2cc(S(=O)(=O)O)ccc21)C(=O)N[C@@H](Cc1c[nH]c2ccccc12)C(=O)N[C@@H](CO)C(=O)O", "note": "[IRDye800CW-AE344, IRDye800CW-Glu-Glu-O2Oc-O2Oc-Asp-Cha-Phe-D-Ser-D-Arg-Tyr-Leu-Trp-Ser-OH]", "values": [{"measurement": "outcome of fluorescence-guided surgery", "setting": "orthotopic GBM", "value": "complete tumor resection"}, {"measurement": "normalized TBR (ref: active probe)", "setting": "uPAR [1]; blocked with AE120", "value": 0.70}, {"measurement": "tumor-to-background ratio (TBR)", "setting": "uPAR [1]; blocked with AE120", "value": 4.6}, {"measurement": "normalized TBR (ref: active probe)", "setting": "uPAR [1]; probe alone", "value": 1.00}, {"measurement": "tumor-to-background ratio (TBR)", "setting": "uPAR [1]; probe alone", "value": 6.6}, {"measurement": "signal intensity compared to the active probe", "setting": "uPAR [1]; competitive blocking with AE120", "value": "lower signal intensity"}, {"measurement": "pathological assessment of the kidneys and the liver", "setting": "[2]", "value": "no pathological findings"}, {"measurement": "preserved fluorescence intensity", "setting": "[3]; after continuous laser exposure for 1 h", "value": 84, "unit": "%"}, {"measurement": "preserved fluorescence intensity", "setting": "[3]; after continuous laser exposure for 2 h", "value": 62, "unit": "%"}, {"measurement": "background MFI", "setting": "[4]; 6 nmol, 1 h", "value": 24, "unit": "a.u."}, {"measurement": "background MFI", "setting": "[4]; 6 nmol, 3 h", "value": 11, "unit": "a.u."}, {"measurement": "decrease in background MFI", "setting": "[4]; 6 nmol, from 1 h to 3 h", "value": 54, "unit": "%"}, {"measurement": "visualization of orthotopic GBM through intact brain on NIR imaging", "setting": "[4]; in vivo cancer imaging", "value": "clearly visualized"}]}
{"compound": "EE-O2Oc-O2Oc-DChaFsrYLWS-NH2 [AE347]", "values": [{"measurement": "IC50", "setting": "uPAR [5]", "value": "5.7 ± 0.5", "unit": "nM"}]}
{"compound": "IRDye800CW-Glu-Glu-NH—CH2—CH2—O—CH2—CH2—O—CH2—CO—NH—CH2—CH2—O—CH2—CH2—O—CH2—CO-Asp-Cha-Glu-(D)Ser-(D)Arg-Tyr-Leu-Glu-Ser-OH ({IRDye800CW′}-EE[AEEA][AEEA]D[Cha]E[dS][dR]YLES-OH) [IRDye800CW-AE354, reference compound]", "values": [{"measurement": "normalized TBR values (FIG. 16C)", "setting": "uPAR [1]; probe alone", "value": 3.4}, {"measurement": "signal intensity compared to the active probe", "setting": "uPAR [1]; probe alone", "value": "lower signal intensity"}]}
